Test system: RBL-2H3 cells
Assay: IgE-induced Beta-hexosaminidase secretion in RBL-2H3 cells
Assay type: cell-based
Details: Rattus norvegicus; RBL-2H3 cells sensitized with SPE-7, stimulated with DNP-BSA
Protocol: For the determination of IgE-induced Beta-hexosaminidase secretion, RBL-2H3 cells (SIBS) are seeded in 96 well plates at 4×10^4 cells per well and incubated in MEM media with 15% FBS and Glutamine ([…]) for 4 hours and sensitized with 0.5 ug/ml of SPE-7 overnight. Cells are washed 3 times with Tyrode's buffer and incubated in the presence or absence of various concentrations of the testing compound for 20 min at 37° C., 5% CO2. Cells are stimulated by adding 10 μL of DNP-BSA solution (150 ng/mL) to each well and incubating for 45 minutes at 37° C., 5% CO2. Then, 45 μL of the supernatant is taken and incubated with 100 μL of 1 mM 4-Nitrophenyl N-acetyl-β-D-glucosaminide (Sigma, Cat. No. N9376), which is diluted in 0.05 M citrate buffer (pH 4.5), for 1.5 hr at 37° C. The reactions are quenched by adding 185 μL of 0.05 M sodium carbonate buffer (pH 10.0). Plates are read at 405 nm on Multiskan (MK 3).

| Structure (SMILES) | IC50 |
| --- | --- |
| Cn1ccc2cc(-c3cc4nccnc4c(OC[C@@H]4CN(S(C)(=O)=O)CCO4)n3)ccc21 [Compound 39] | 1 to 100 nM |
| COC1CCN(c2ccc(-c3cc4nccnc4c(OC[C@@H]4CN(C(C)=O)CCO4)n3)cc2)CC1 [Compound 48] | 100 to 1000 nM |
| CS(=O)(=O)N1CCO[C@H](COc2nc(-c3ccc(N4CCN(CCO)CC4)cc3)cc3nccnc23)C1 [Compound 27] | 100 to 1000 nM |
| O=C(C(F)F)N1CCO[C@H](COc2nc(-c3ccc(N4CCOCC4)cc3)cc3nccnc23)C1 [Compound 61] | 1 to 100 nM |
| CN(C)c1ccc(-c2cc3nccnc3c(OC[C@@H]3CN(C(=O)c4ncc[nH]4)CCO3)n2)cc1 [Compound 86] | 100 to 1000 nM |
| CN(C)c1ccc(-c2cc3nccnc3c(OC[C@@H]3CN(C(=O)c4cnn(C)c4)CCO3)n2)cc1 [Compound 87] | 100 to 1000 nM |
| CCS(=O)(=O)N1CCO[C@H](COc2nc(-c3ccc(N(C)C)cc3)cc3nccnc23)C1 [Compound 88] | 1 to 100 nM |
| CNc1ccc(-c2cc3nccnc3c(OC[C@@H]3CN(C(=O)[C@H]4CCOC4)CCO3)n2)cc1 [Compound 50] | 100 to 1000 nM |
| CN(C)c1ccc(-c2cc3nccnc3c(OC[C@@H]3CN(C(N)=O)CCO3)n2)cc1 [Compound 136] | 1 to 100 nM |
| CN(C)c1ccc(-c2cc3nccnc3c(OC[C@@H]3CN(C(=O)C4CCOCC4)CCO3)n2)cc1 [Compound 73] | 100 to 1000 nM |
| NS(=O)(=O)N1CCO[C@H](COc2nc(-c3ccc(N4CCCCC4)cc3)cc3nccnc23)C1 [Compound 28] | 100 to 1000 nM |
| CN(C)c1ccc(-c2cc3nccnc3c(OC[C@@H]3CN(C(=O)C4CCCC4)CCO3)n2)cc1 [Compound 98] | 100 to 1000 nM |
| CS(=O)(=O)N1CCO[C@H](COc2nc(-c3ccc(N4CCC(F)(F)CC4)cc3)cc3nccnc23)C1 [Compound 20] | 1 to 100 nM |

Source: patent US20150307491A1, “SUBSTITUTED PYRIDOPYRAZINES AS SYK INHIBITORS” (HUTCHISON MEDIPHARMA LIMITED, priority 2012, published 2015)
